Data: patent US7442798B2, “Autoinducer molecules and uses therefor” (priority 2000, dated 2008)
“Also recorded” adds a separate entry of the source.

Key:
lasB′-lacZ fusion [1] = test: PQS bioassay: activation of lasB′-lacZ fusion in P. aeruginosa strain PAO-R1 (lasR−) (pTS400), β-galactosidase assay; assay type: cell-based, Pseudomonas aeruginosa
Description: To monitor PQS bioactivity, 1-ml cultures of P. aeruginosa strain PAO-R1 (pTS400) were grown for 18 h at 37° C. with shaking (260 rpm; initial optical density was 0.02 at 660 nm) in the presence of culture extract or synthetic PQS. This was followed by measuring activation of the lasB′-lacZ fusion with the use of β-galactosidase (β-gal) assays as described by Miller (19). For culture extracts, bacterial culture fluid was extracted with ethyl acetate and was prepared as described (3). Extracts that were resuspended in ethyl acetate were added to bioassay tubes, and ethyl acetate was removed by drying under a stream of nitrogen. Unless otherwise specified, the amount of material assayed was extracted from 10 ml of culture fluid.

lasB′-lacZ fusion [2] = details: strain PAO-R1 (lasR) (pTS400); cited from earlier work
lasB′-lacZ = lasB′-lacZ bioassay in lasR, rhlR double mutant strain PAO-JP3 (pTS400); assay type: cell-based, Pseudomonas aeruginosa
Description: This molecule was determined to have a 4-quinolone base structure and therefore has been designated as the Pseudomonas quinolone signal (PQS). Furthermore, exogenously added PQS induced a lasB′-lacZ fusion in the P. aeruginosa lasR mutant, strain PAO-R1, containing the plasmid pTS400. […] Despite the ability of PQS to activate lasB′-lacZ in the absence of lasR, the production of PQS required an active LasR protein. […] It was also determined that at least RhlR was required for PQS to act as a signal because lasB′-lacZ was not induced by PQS in the lasR, rhlR double mutant, strain PAO-JP3, containing the plasmid pTS400.

Staphylococcus aureus = test: anti-Staphylococcus aureus activity; assay type: cell-based
E. coli = test: anti-E. coli activity; assay type: cell-based
RhlR = test: E. coli bioassay: strain DH5a (pECP62.5) with lasB′-lacZ reporter and inducible tacp-rhlR; assay type: cell-based, Escherichia coli; details: E. coli strain DH5a (pECP62.5), tacp-rhlR induced
Description: Using this information, an experiment was conducted to define the requirements for signal activity by developing an E. coli bioassay for the signal. E. coli strain DH5a was transformed with plasmid pECP62.5, which contained the lasB′-lacZ reporter and the inducible tacp-rhlR gene. If the signal worked directly through RhlR, then the induction of tacp-rhlR in the presence of exogenously added signal should result in the activation of lasB′-lacZ in E. coli strain DH5a (pECP62.5).

Row | Structure (SMILES) | induction of lasB′-lacZ / activity in the PQS bioassay (in words) (lasB′-lacZ fusion [1]; strain PAO-R1 (lasR−) (pTS400)) | response of lasB′-lacZ fusion to exogenously added autoinducer (in words) (lasB′-lacZ fusion [2]) | also measured
1 | CCCCCCCC1C(=O)c2ccccc2N=C1O (stereo not shown) [2-hydroxy-3-heptyl-4-quinolone, reference compound] | not active | – | –
2 | CCCC(=O)N[C@H]1CCOC1=O [C4-HSL, N-butanoyl-L-homoserine lactone, reference compound] | could not be mimicked | mildly activated | –
3 | CCCCCCCc1cc(O)c2ccccc2[n+]1[O-] [2-heptyl-4-hydroxy-quinoline-N-oxide, reference compound] | not active | – | –
4 | CCCCCCCCCC(=O)CC(=O)N[C@H]1CCOC1=O [3-oxo-C12-HSL, N-3-(oxododecanoyl)-L-homoserine lactone, reference compound] | could not be mimicked | unresponsive | –
5 | CCCCCCCc1[nH]c2ccccc2c(=O)c1O [PQS, 2-heptyl-3-hydroxy-4-quinolone] | active; also recorded: dose-dependent induction | – | activation of the lasB promoter (β-gal activity) (lasB′-lacZ fusion [1]; 5 mM synthetic PQS, strain PAO-R1 (lasR−) (pTS400), FIG. 6): 148 Miller units; EC50 (lasB′-lacZ fusion [1]; Pseudomonas aeruginosa, read-out: amount required to activate the bioassay to half of its maximum activity): ~30 µM; induction of lasB′-lacZ (in words) (lasB′-lacZ): not induced; anti-Staphylococcus aureus activity (Staphylococcus aureus): does not have detectable; anti-E. coli activity (E. coli): does not have detectable; PQS response, lasB′-lacZ, in recombinant E. coli expressing RhlR (in words) (RhlR): not replicated
